In US9096549B2, “Selective HDAC3 inhibitors” (Acetylon Pharmaceuticals, Inc., priority 2013, dated 2015):

Experiments:
Assay type in all cases: biochemical
Conditions in all cases: 24 hours pre-incubation with enzyme; tripeptide substrate 3 at Km
HDAC2 = HDAC2 (Homo sapiens (Human), UniProt Q92769); assay: HDAC enzyme assay, HDAC2
Protocol: (§1) Compounds for testing were diluted in DMSO to 50 fold the final concentration and a ten point three fold dilution series was made. The compounds were diluted in assay buffer (50 mM HEPES, pH 7.4, 100 mM KCl, 0.001% Tween-20, 0.05% BSA, […] tris(2-carboxyethyl)phosphine) to 6 fold their final concentration. The HDAC enzymes (purchased from BPS Biosciences) were diluted to 1.5 fold their final concentration in assay buffer and pre-incubated with the compounds for 24 hours prior to addition of the substrate.
(§2) The substrate tripeptide substrate 3 (synthesized in house) for each enzyme was equal to the Km as determined by a substrate titration curve. The substrates were diluted in assay buffer at 6× their final concentration with 0.3 μM sequencing grade trypsin (Sigma). The substrate/trypsin mix was added to the enzyme/compound mix, the plate was shaken for 60 seconds and placed into a Spectramax M5 microtiter plate reader. The development of fluorescence was monitored for 30 min. and the linear rate of the reaction was calculated. The IC50 was determined using Graph Pad Prism by a four parameter curve fit. The IC50 values obtained for the compounds of this invention are found in Table 1.

HDAC1 = HDAC1 (Homo sapiens (Human), UniProt Q13547); assay: HDAC enzyme assay, HDAC1
Protocol: as §1, §2

HDAC3 = HDAC3 (Homo sapiens (Human), UniProt O15379); assay: HDAC enzyme assay, HDAC3
Protocol: as §1, §2

Chain of HDAC1 (Q13547 whole entry): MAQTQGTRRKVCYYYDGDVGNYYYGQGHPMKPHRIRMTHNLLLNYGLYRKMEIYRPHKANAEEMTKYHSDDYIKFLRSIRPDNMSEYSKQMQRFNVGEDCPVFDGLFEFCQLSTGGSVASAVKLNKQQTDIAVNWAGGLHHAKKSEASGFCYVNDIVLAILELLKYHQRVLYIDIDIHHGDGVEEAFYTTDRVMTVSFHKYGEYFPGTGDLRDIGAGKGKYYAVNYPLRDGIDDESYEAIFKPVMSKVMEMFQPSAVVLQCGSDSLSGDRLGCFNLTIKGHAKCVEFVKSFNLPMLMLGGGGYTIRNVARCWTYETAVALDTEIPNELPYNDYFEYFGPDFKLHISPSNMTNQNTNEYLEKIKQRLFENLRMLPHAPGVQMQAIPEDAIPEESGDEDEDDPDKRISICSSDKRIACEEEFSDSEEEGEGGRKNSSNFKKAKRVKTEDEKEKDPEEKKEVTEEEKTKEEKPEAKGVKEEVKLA
Chain of HDAC3 (O15379 whole entry): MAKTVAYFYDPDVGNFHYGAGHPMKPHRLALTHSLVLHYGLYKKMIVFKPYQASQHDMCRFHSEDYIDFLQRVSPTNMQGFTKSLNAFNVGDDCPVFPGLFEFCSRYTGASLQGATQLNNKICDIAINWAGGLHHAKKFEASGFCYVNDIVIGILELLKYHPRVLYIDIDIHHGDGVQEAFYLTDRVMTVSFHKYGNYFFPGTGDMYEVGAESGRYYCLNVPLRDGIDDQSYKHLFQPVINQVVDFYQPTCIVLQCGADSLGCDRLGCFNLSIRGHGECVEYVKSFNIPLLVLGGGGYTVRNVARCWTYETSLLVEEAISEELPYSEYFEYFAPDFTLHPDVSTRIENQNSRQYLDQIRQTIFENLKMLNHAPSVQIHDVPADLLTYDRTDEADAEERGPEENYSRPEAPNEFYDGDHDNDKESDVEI
Chain of HDAC3 (Q9Y618 395-489 partner): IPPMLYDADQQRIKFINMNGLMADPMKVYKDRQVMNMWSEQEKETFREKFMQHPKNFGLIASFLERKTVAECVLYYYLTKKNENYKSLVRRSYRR
Chain of HDAC2 (Q92769 whole entry): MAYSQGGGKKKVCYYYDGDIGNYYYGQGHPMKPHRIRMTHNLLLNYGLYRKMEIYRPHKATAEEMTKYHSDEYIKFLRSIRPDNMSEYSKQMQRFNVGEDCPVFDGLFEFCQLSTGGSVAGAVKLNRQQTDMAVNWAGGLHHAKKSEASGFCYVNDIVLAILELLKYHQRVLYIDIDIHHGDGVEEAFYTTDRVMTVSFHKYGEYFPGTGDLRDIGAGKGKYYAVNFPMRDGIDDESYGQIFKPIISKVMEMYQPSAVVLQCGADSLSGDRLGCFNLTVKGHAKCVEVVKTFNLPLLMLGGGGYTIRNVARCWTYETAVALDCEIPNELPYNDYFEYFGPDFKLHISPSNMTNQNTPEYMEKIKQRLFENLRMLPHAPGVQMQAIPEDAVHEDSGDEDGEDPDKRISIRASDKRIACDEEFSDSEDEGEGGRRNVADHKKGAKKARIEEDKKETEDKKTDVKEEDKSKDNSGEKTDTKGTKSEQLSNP

| SMILES | IC50 (HDAC2) [nM] | IC50 (HDAC1) [nM] | IC50 (HDAC3) [nM] | IC50 (nM) HDAC2 (HDAC2) | IC50 (nM) HDAC1 (HDAC1) |
| --- | --- | --- | --- | --- | --- |
| Nc1ccccc1NC(=O)c1cnc2c(C3CC3)c(N3CCNCC3)ccc2c1 [Compound B] | 372 | 355 | 53 | – | – |
| Nc1ccc(F)cc1NC(=O)c1cnc2c(C3CC3)c(N3CCNCC3)ccc2c1 [Compound A] | 455 | 468 | 59 | – | – |
| Nc1ccccc1NC(=O)c1cc2ccc(N3CCNCC3)c(C3CC3)c2cn1 [Compound L] | 212 | 228 | 33 | – | – |
| Nc1ccc(F)cc1NC(=O)c1ccc2nc(N3CCNCC3)cnc2c1 [Compound P] | 1100 | > 2000 | 235 | – | – |
| Nc1cc(F)ccc1NC(=O)c1cnc2cc(N3CCNCC3)ccc2n1 [Compound N] | – | – | 1300 | No inhibition | No inhibition |
| Nc1ccc(F)cc1NC(=O)c1cnc2cc(N3CCNCC3)ccc2n1 [Compound O] | > 2000 | > 2000 | 675 | – | – |
| CN1CCN(c2ccc3cc(C(=O)Nc4ccc(F)cc4N)cnc3c2C2CC2)CC1 [Compound E] | 805 | 1610 | 68 | – | – |
| Nc1cc(F)ccc1NC(=O)c1cnc2c(C3CC3)c(N3CCNCC3)ccc2c1 [Compound I] | 589 | > 2000 | 57 | – | – |
| Nc1ccc(F)cc1NC(=O)c1ccc2nc(N3CCNCC3)ccc2c1 [Compound R] | 1340 | > 2000 | 315 | – | – |
| Nc1cc(F)ccc1NC(=O)c1ccc2c(cnn2CCN2CCOCC2)c1 [Compound H] | 1780 | > 2000 | 320 | – | – |
| Nc1ccccc1NC(=O)c1cc2ccc(N3CCNCC3)cc2cn1 [Compound K, N-(2-aminophenyl)-7-(piperazin-1-yl)isoquinoline-3-carboxamide] | 271 | 299 | 38 | – | – |
| Nc1cc(F)ccc1NC(=O)c1cnc2cc(N3CCNCC3)ccc2c1 [Compound J] | > 2000 | – | 470 | – | No inhibition |
| Nc1cc(F)ccc1NC(=O)c1ccc2[nH]cnc2c1 [Compound D] | > 2000 | – | 282 | – | No inhibition |
| Nc1ccc(F)cc1NC(=O)c1cnc2cc(N3CCNCC3)ccc2c1 [Compound Q, N-(2-amino-5-fluorophenyl)-7-(piperazin-1-yl)quinoline-3-carboxamide] | > 2000 | > 2000 | 308 | – | – |
| Nc1cc(F)ccc1NC(=O)c1ccc2c(c1)CC(=O)N2 [Compound C] | > 2000 | – | 269 | – | No inhibition |
| Nc1cc(F)ccc1NC(=O)c1cc2ccc(N3CCNCC3)c(C3CC3)c2cn1 [Compound M] | 228 | 462 | 30 | – | – |
| Nc1cc(F)ccc1NC(=O)c1cnc2c(ccn2CCN2CCOCC2)c1 [Compound G] | 1530 | > 2000 | 193 | – | – |
